The source of these data is ChEMBL document CHEMBL4706688 (J Med Chem, 2021).

A short description of one assay: cells. To be noted: Homo sapiens, UKE1, 72 h. The assay is classed as functional, tissue-based, UKE-1.
The target of assay [1] is T1, Tyrosine-protein kinase JAK2 (Homo sapiens, UniProt O60674). To be noted: HEK293F, dose 100.0 µM.
Assay [2] concerns the target T1, Tyrosine-protein kinase JAK2. The assay is described as follows: biochemical.

SMILES strings stand for the structures.

As usually defined, the IC50 is the midpoint of a concentration-inhibition curve. A high value points to a need for much substance. The term ΔTm denotes the shift of the melting midpoint relative to a reference.

T1 sequence (O60674 whole entry): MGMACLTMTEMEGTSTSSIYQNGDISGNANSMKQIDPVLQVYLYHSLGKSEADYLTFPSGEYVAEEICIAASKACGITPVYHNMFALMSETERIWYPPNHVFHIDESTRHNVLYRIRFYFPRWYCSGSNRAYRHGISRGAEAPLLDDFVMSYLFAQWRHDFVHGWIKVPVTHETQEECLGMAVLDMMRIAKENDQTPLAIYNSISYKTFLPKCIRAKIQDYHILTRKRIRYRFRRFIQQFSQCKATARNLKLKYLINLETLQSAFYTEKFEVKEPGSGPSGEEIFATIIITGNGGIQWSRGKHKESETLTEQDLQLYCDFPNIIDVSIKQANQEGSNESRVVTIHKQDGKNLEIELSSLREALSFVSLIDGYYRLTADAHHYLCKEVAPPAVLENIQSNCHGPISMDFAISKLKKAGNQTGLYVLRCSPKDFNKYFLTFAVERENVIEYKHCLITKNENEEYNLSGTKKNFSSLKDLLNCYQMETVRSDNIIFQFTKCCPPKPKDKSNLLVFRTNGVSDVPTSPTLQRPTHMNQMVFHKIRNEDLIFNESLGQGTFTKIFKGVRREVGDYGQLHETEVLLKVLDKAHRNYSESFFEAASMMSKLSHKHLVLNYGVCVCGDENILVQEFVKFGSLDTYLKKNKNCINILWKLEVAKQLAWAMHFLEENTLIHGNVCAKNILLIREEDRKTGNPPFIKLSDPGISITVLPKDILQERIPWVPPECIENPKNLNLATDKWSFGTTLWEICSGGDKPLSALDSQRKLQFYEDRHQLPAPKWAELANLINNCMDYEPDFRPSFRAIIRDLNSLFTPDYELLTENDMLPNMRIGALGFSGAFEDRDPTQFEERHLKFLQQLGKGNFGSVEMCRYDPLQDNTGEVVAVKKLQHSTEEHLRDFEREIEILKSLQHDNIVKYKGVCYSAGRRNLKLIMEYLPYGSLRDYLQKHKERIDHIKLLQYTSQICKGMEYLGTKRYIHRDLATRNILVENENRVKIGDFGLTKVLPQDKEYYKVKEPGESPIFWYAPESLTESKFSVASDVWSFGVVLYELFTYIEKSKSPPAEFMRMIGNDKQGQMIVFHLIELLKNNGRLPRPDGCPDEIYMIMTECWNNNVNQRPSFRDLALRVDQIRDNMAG

In the assay “cells”, `Cc1cnc(Nc2ccc(C3CCN(C)CC3)c(F)c2)nc1Nc1ccc(F)c(NS(=O)(=O)C(C)(C)C)c1` yielded an IC50 of 200 nM. For the same compound, the shift in melting temperature (ΔTm) in assay [1] turned out to be 3.1 °C.
In the case of `N#CC[C@@H](C1CCCC1)n1cc(-c2nc(Nc3ccc(C4CCNCC4)cc3)nc3[nH]ccc23)cn1`, the thermal shift (ΔTm) in assay [1] turned out to be 8.3 °C.
With `Cc1cnc(Nc2ccc(C3CCN(C)CC3)c(F)c2)nc1Nc1ccc2c(c1)N(S(=O)(=O)C(C)(C)C)CC2`, in the assay “cells”, half-maximal inhibition (IC50) was put at 210 nM. For the same compound, the ΔTm in assay [1] was found to be 4.3 °C.
`Cc1cnc(Nc2ccc(OCCN3CCCC3)cc2)nc1Nc1cccc(S(=O)(=O)NC(C)(C)C)c1` [FEDRATINIB] returned a concentration for half-maximal inhibition (IC50) in the assay “cells” of 660 nM.
In the case of `C=CCCn1cc(-c2nc(Nc3ccc(C4CCNCC4)cc3)nc3[nH]ccc23)cn1`, inhibition in the assay “cells” was half-maximal at 620 nM (IC50). Moreover, in assay [1], the shift in melting temperature (ΔTm) turned out to be 6.4 °C.
Take `N#CC[C@H](C1CCCC1)n1cc(-c2nc(Nc3ccc(C4CCNCC4)cc3)nc3[nH]ccc23)cn1`: the ΔTm in assay [1] came to 12 °C.
Consider `N#CCCn1cc(-c2nc(Nc3ccc(C4CCNCC4)cc3)nc3[nH]ccc23)cn1`, for which the IC50 in the assay “cells” was 4500 nM. In assay [1], the ΔTm turned out to be 7 °C.
Take `N#CCC(C1CCCC1)n1cc(-c2nc(Nc3ccc(C4CCNCC4)cc3)nc3[nH]ccc23)cn1` (racemic): the IC50 in assay [2] was under 0.05 nM. The thermal shift (ΔTm) in assay [1] stood at 11.8 °C.
Turning to `Cc1cnc(Nc2cc(F)c(C3CCN(C)CC3)c(F)c2)nc1Nc1ccc(F)c(NS(=O)(=O)C(C)(C)C)c1`, inhibition in the assay “cells” was half-maximal at 150 nM (IC50). In addition, the ΔTm in assay [1] was 3.2 °C.
